Assay results as given in patent publication US6747050B1, “Isoxazoline derivative and a process for the preparation thereof” (LG Chem Investment Ltd., priority 1999, dated 2004).

Key:
C57BL/6 female mice [1] = assay: anti-Fas antibody (Jo2)-induced liver apoptosis and lethality in mice; format: in vivo
Description: (§1) […] C57BL/6 female mice (18-20 g) were injected i.p. with compound 33MP dissolved in vehicle which consists of olive oil and 10% DMSO, or vehicle alone, at 1 hr before i.v. injection with 10 μg of Anti-Fas antibody (Jo2). Following 4 hrs of i.v. injection with Jo2 antibody, animals were placed under inhaled isoflurane anesthesia for blood collection and liver isolation. Mice were also i.p. injected with 0.2 μg/20 g of TNFα and 12 mg/20 g of D-galactosamine (TNFα/GalN) and compound 33MP or its salt form (Compound 33MP-Na). 8 hrs later, blood and liver tissues were isolated from anesthetized animals. The liver tissues were snap-frozen and stored at −80° C. until use. Plasma was isolated from blood by centrifugation at 12,000×g for 10 min at 4° C. and stored at −80° C. In some experiments for animal mortality, mice were i.p. injected with TNFα/GalN and caspase inhibitor was injected 1 hr before, simultaneously, 2 hrs, or 4 hrs after TNFα/GalN injection
(§2) Whole tissues (0.5 g) were homogenated in ice-cold lysis buffer (5 mM Tris, 20 mM EDTA, 0.5% Triton-X 100, pH8.0). […] The supernatant was obtained and extracted twice with a mixture of phenol and chloroform. One-tenth volume of 3 M sodium acetate was added to the solution, and DNA was precipitated by adding an equal volume of isopropanol. After storing at −20° C. overnight, a DNA pellet was obtained by centrifugation at 12,000×g for 15 min. at 4° C. and washed twice with 75% ethanol. The pellet was dried and resuspended in 100 μl of 20 mM Tris-HCl, pH 8.0. After digesting RNA with DNase-free RNase (0.1 mg/ml, at 37° C. for 1 hr, samples […] were electrophoresed through a 1.2% agarose gel in 450 mM Tris borate+EDTA (TBE), pH 8.0 buffer. DNA was photographed under visualized with UV light.
(§3) Liver tissues were homogenated in 10 mM HEPES buffer containing protease inhibitors (5 μg/ml aprotinin, 5 μg/ml pepstatin A, 10 μg/ml leupeptin, and 0.5 mM PMSF) and lysed by three feeze/thaw cycles. […] Protein concentration was determined with BCA protein assay reagent (pierce, Rockford, Ill.). Cytosol containing 200 μg protein was combined in 96-well plate with […] of synthetic substrate Ac-DEVD-pNA in 150 μl of 100 mM HEPES, pH 7.4, containing the protease inhibitors, and the reaction was conducted for 1 hr at 37° C. […] Plasma level of aspartate aminotransferase (AST) was analyzed by spectrophotometry using each enzyme assay kit (Sigma).

C57BL/6 female mice [2] = assay: TNFα-induced liver toxicity and lethality in mice; format: in vivo; details: TNFα/ActD
Description: as §1, with “Mice were also i.p. injected with 0.2 μg/20 g of TNFα and 12 mg/20 g of D-galactosamine (TNFα/GalN) and compound 33MP or its salt form (Compound 33MP-Na).” left out
as §2, §3

[3] = test system: caspase-3-like activity (Ac-DEVD-pNA); assay: Caspase-3-like activity in TNFα/ActD-treated primary rat hepatocytes; format: cell-based; details: 100 μM, 8 hrs
Description: Primary rat hepatocytes were isolated and purified from male Sprague-Dawley rats using a collagenase digestion method. The hepatocytes were purified over 30% Percoll gradient by centrifugation at 1,000×g for 10 min. at 4° C. […] The cells were plated on collagen-coated tissue culture plates at a density of 2×10^5 cells/well in 12-well plates for cell viability analysis or 5×10^6 cells/100 mm dish for enzyme assays. After 18 hrs preculture, the cells were treated with 2,000 units/ml TNFα and 0.2 μg/ml Actinomycin (ActD). Caspase activity and cell viability was determined by colorimetry using a caspase substrate Ac-DEVD-pNA and crystal violet staining method at 8 hrs and 12 hrs, respectively.

caspase-1 = biological target: T1, caspase-1 (Homo sapiens, UniProt P29466); assay: Recombinant caspase enzyme inhibition, fluorogenic substrate Ac-YVAD-AMC; format: biochemical; details: Irreversible Inhibitors; read-out: Kobs/[I] for caspase-1
T1 construct: made in house; host or cells: transformed bacterium (pET vector)
T1 sequence (P29466 120-297 limits assumed): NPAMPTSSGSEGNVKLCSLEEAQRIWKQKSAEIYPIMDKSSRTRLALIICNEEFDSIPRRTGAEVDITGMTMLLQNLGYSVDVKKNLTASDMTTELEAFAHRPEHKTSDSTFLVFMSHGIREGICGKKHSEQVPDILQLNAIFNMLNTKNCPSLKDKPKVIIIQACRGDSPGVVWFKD
T1 sequence (P29466 317-404 limits assumed): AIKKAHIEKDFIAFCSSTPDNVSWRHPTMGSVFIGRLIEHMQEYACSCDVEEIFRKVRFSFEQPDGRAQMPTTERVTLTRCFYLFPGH
Description: (§4) In the present experiment recombinant caspases were purified from a transformed bacterium after human caspase genes were cloned into the expression vector pET, and then used in the experiment (Thornberry, N. A. et al. Nature, 1992, 356, 768. Thornberry, N. A. Methods in Enzymology, 1994, 615.).
(§5) Enzymatic activity was measured by a known procedure (Walker N. P. C. et al., Cell 1994, 78, 343). Briefly, 10 ng of recombinant protein was mixed with 50 mM Tris(pH 7.0), 1 mM DTT, 0.5 mM EDTA, 10% Glycerol buffer containing 1˜100 μM of enzyme substrate, Ac-YVAD-AMC or Ac-DEVD-AMC and then the changes by isolated AMC at 37° C. were recorded. The inhibitory activity for caspases was calculated from the early enzyme reaction rate by measuring the changes with fluorescence excited at […] and emitted at 460 nm (Range; Ki<100 nM).

caspase-3 = biological target: T2, caspase-3 (Homo sapiens, UniProt P42574); assay: Recombinant caspase enzyme inhibition, fluorogenic substrate Ac-DEVD-AMC; format: biochemical; details: Irreversible Inhibitors; read-out: Kobs/[I] for caspase-3
T2 construct: made in house; host or cells: transformed bacterium (pET vector)
T2 sequence (P42574 29-175 limits assumed): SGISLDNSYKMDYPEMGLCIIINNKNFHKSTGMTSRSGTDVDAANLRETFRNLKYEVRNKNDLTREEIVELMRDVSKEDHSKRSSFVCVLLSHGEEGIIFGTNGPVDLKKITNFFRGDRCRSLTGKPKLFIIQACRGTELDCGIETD
T2 sequence (P42574 176-277 limits assumed): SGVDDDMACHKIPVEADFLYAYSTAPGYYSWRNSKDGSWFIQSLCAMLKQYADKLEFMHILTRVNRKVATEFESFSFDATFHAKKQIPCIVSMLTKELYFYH
Description: as §4, §5

CC(C)[C@H](NC(=O)c1cccc2ccccc12)C1=NOC(Cc2ccccc2)(C(=O)N[C@@H](CC(=O)O)C(=O)COC(=O)c2c(Cl)cccc2Cl)C1 (stereo partly drawn) [Compound 33MP, (3S)-3-{3-[2-Methyl-(1S)-1-(1-naphthalenecarbonylamino)-propyl]-5-phenylmethyl-4,5-dihydro-isoxazole-5-carbonylamino}-4-keto-5-(2,6-dichlorobenzoyloxy)-pentanoic Acid]
liver apoptosis determined by DNA fragmentation (FIG. 9A) (C57BL/6 female mice [1]; 0.4 mg/20 g, 1 mg/20 g i.p. 1 hr before antibody, 4 hrs): suppressed the liver apoptosis in a dose-dependent manner
release of liver enzyme AST (FIG. 9B) (C57BL/6 female mice [1]; 4 hrs after anti-Fas antibody): significantly suppressed
caspase-3-like activity in liver tissues (FIG. 10) (C57BL/6 female mice [1]; anti-Fas antibody increased activity about 25-folds): abrogated
inhibition of mortality compared with Z-VAD-fmk (C57BL/6 female mice [1]; mouse, in vivo): more effective
suppression of AST release compared with Z-VAD-fmk (C57BL/6 female mice [1]; mouse, in vivo): higher
suppression of liver apoptosis compared with Z-VAD-fmk (C57BL/6 female mice [1]; mouse, in vivo): higher
reduction of mortality (FIG. 11) (C57BL/6 female mice [1]; within 24 hrs, antibody alone 85% died): about 30%
DNA fragmentation in liver tissues (FIG. 12A) (C57BL/6 female mice [2]): significantly reduced
caspase-3-like activity in liver (FIG. 13) (C57BL/6 female mice [2]): suppressed
inhibitory effect on caspase activity compared with Z-VAD-fmk (C57BL/6 female mice [2]): higher
protective effect compared with Z-VAD-fmk (C57BL/6 female mice [2]): higher
release of AST (FIG. 12B) (C57BL/6 female mice [2]): suppressed
caspase-3-like activity increased by TNFα/ActD (FIG. 15A) [3]: not different

CC(C)[C@H](NC(=O)c1cc2ccccc2[nH]1)C1=NOC(Cc2ccccc2)(C(=O)N[C@@H](CC(=O)O)C(=O)COC(=O)c2c(Cl)cccc2Cl)C1 (stereo partly drawn) [Compound 64, (3S)-3-{3-[2-Methyl-(1S)-1-(indole-2-carbonylamino)-propyl]-5-phenylmethyl-4,5-dihydro-isoxazole-5-carbonylamino}-4-keto-5-(2,6-dichlorobenzoyloxy)-pentanoic Acid]
kinact/KI (caspase-1): 707000 M⁻¹ s⁻¹
kinact/KI (caspase-3): 1230 M⁻¹ s⁻¹

CC(C)[C@H](NC(=O)c1c[nH]c2ccccc12)C1=NOC(Cc2ccccc2)(C(=O)N[C@@H](CC(=O)O)C(=O)COC(=O)c2c(Cl)cccc2Cl)C1 (stereo partly drawn) [Compound 66, (3S)-3-{3-[2-Methyl-(1S)-1-(indole-3-carbonylamino)-propyl]-5-phenylmethyl-4,5-dihydro-isoxazole-5-carbonylamino}-4-keto-5-(2,6-dichlorobenzoyloxy)-pentanoic Acid]
kinact/KI (caspase-1): 357000 M⁻¹ s⁻¹
kinact/KI (caspase-3): 1560 M⁻¹ s⁻¹

CC(C)[C@H](NC(=O)c1cccc2ccccc12)C1=NOC(C)(C(=O)N[C@@H](CC(=O)O)C(=O)COC(=O)c2c(Cl)cccc2Cl)C1 (stereo partly drawn) [Compound 68, (3S)-3-{3-[2-Methyl-(1S)-1-(naphthalene-1-carbonylamino)-propyl]-5-methyl-4,5-dihydro-isoxazole-5-carbonylamino}-4-keto-5-(2,6-dichlorobenzoyloxy)-pentanoic Acid]
kinact/KI (caspase-1): 616000 M⁻¹ s⁻¹
kinact/KI (caspase-3): 2390 M⁻¹ s⁻¹
